Reference: patent US20120283280A1, “IMIDAZOTETRAZINONE-BASED COMBI-MOLECULES” (priority 2011, published 2012)
Entries after “also recorded” stand apart in the source; their conditions may differ.

Legend:
[1] = Dose finding and comparative toxicity study in mice; type: in vivo; set-up: key to Vital Sign, Day 8 / Vital Sign, Day 10 / Vital Sign, Day 16 / Vital Sign, Day 1 / Vital Sign, Day 3 / Vital Sign, Day 6: Normal (i.e. No sign of Toxicity); BCS = 2: BCS (Body Condition Score) = 2 indicates that mice are underconditioned (observable signs include segmentation of the vertebral column, palpability of the dorsal pelvic bones); conditions: for Vital Sign, Day 1 / Vital Sign, Day 3 / Vital Sign, Day 6 / Vital Sign, Day 8 / Vital Sign, Day 10 / Vital Sign, Day 16: CD-1 mice (n = 6), 100 mg/kg once every other day
Text: The results are further illustrated hereinbelow in Table 4.

[2] = system: DU145 cell line; assay: Mouse xenograft study (DU145); conditions: for antitumor activity: DU145 xenograft, 100 mg/kg i.p. every other day, 31 days after treatment
[3] = target: T1, EGFR tyrosine kinase (Homo sapiens, UniProt P00533); assay: EGFR kinase enzyme assay (ELISA, PGT phosphorylation); type: biochemical; conditions: for IC50: 8 minute exposure, PGT substrate, read-out: IC50, EGFR TK inhibition
T1 construct: purchased
Method: EGFR Kinase Enzyme Assay: The EGFR kinase assay was performed following a known procedure. Briefly, Nunc MaxiSorp (Nalge Nunc International, Rochester, N.Y., USA) 96-well plates were incubated overnight at 37° C. with 100 μL/well of […] poly(L-glutamic acid-L-tyrosine, 4:1) PGT in PBS. Excess PGT was removed and the plates were washed three times with wash buffer (0.1% Tween-20 in PBS). The kinase reaction was performed using commercially available isolated EGFR (4.5 ng/well). The compound was added and phosphorylation was initiated by the addition of 20 μL/well of ATP (50 μM). After 8 min at room temperature with constant shaking, the reaction was terminated by aspiration of the reaction mixture and rinsing of the plates (four times) with wash buffer. Phosphorylated PGT was detected following a 25 min incubation with 50 μL/well of horseradish peroxidase-conjugated PY20 anti-phosphotyrosine antibody (Santa Cruz Biotechnology, Santa Cruz, Calif., USA) diluted to […] in blocking buffer (3% bovine serum albumin and 0.05% Tween-20 in PBS). The antibody was removed by aspiration and the plates washed four times with wash buffer. The signals were developed by the addition of 50 μL/well of 3,3′,5,5′-tetramethylbenzidine peroxidase substrate (Kirkegaard and Perry Laboratories, Gaithersberg, Md., USA). Following blue color development, H2SO4 (50 μL; 0.09 M) was added per well to stop the reaction. The plates were read at 450 nm using a Bio-Rad ELISA reader (model 2550; Bio-Rad, Hercules, Calif., USA).
Inhibition of EGFR TK: The EGFR TK inhibitory activity of JDF12 and its metabolite JDF04R was tested in a short 8 minute exposure to an ELISA assay. The assay was based on the inhibition of phosphorylation of poly(L-glutamic acid-L-tyrosine, 4:1) (PGT) by EGFR tyrosine kinase. […] As expected, the EGFR TK-inhibitory activity of MTZ was negligible (FIG. 1).

[4] = target: T2, EGFR autophosphorylation in DU145 cells (Homo sapiens, UniProt P00533); assay: EGFR phosphorylation assay, whole cell (Western blot); type: cell-based
T2 construct: endogenous in cells; host or cells: DU145
Method: EGFR Phosphorylation Assay: DU145 cells (1×10^6) were preincubated in a six-well plate using 10% serum at 37° C. over a period of 24 h followed by a starving period of 24 h. The cells where then exposed to a dose range of each drug over a period of 2 h and subsequently treated with 50 ng/ml of EGF for 20 min at 37° C. The cells were washed with PBS and resuspended in cold lysis buffer [50 mmol/L Tris-HCl (pH 7.5), 150 mmol/L NaCl, 1% NP40, 1 mmol/L EDTA, 5 mmol/L NaF, 1 mmol/L Na3VO4, protease inhibitor tablet (Roche Biochemicals, Laval, Quebec, Canada)]. The lysates were kept on ice for 30 min and collected by centrifugation at 10,000 rpm for 20 min at 4° C. The concentrations of protein were determined using the Bio-Rad protein assay kit (Bio-Rad Laboratories, Hercules, Calif.). Equal amounts of protein […] were subjected to a 10% SDS-polyacrylamide gel electrophoresis (SDS-PAGE) and transferred to a polyvinylidene difluoride membrane (Millipore, Bedford, Mass.). Nonspecific binding on the membrane was minimized with a blocking buffer containing bovine serum albumin (5%) in PBS-Tween 20. The membranes were subsequently incubated with primary anti-phosphotyrosine antibody (Upstate Biotechnology, Lake Placid, N.Y.) for the detection of phosphotyrosine. The membranes were stripped and reprobed with anti-EGFR (Neomarkers, Fremont, Calif.) for determination of corresponding receptor levels. Blots were incubated with horseradish peroxidase-goat anti-mouse antibody (1:1,000 dilution; Cell Signaling Research, Beverly, Mass.), and the bands visualized with an enhanced chemiluminescence system (Amersham Pharmacia Biotech,. Little Chalfont, UK). Band intensities were measured using the SynGene GeneTools software package.
Inhibition of EGFR TK in Whole Cell Assay: DU145 cells were starved for 24 h and stimulated with EGF in the presence of the different drugs over a period of 2 h. Inhibition of autophosphorylation of EGFR was analyzed by Western blotting. The observed order of potency from this whole cell assay paralleled the one previously observed with ELISA. […]

[5] = system: DU145 cells; assay: Annexin V binding analysis (apoptosis); type: cell-based, human; conditions: 25 μM, 48 h exposure
Method: Annexin V binding Analysis: Cells were pre-incubated in 6-well plates until confluence and then exposed to a dose range of each drug over a period 48 h. The cells were subsequently harvested and incubated with annexin V-FITC and propidium iodide (PI) using the apoptosis Detection Kit (BD Bioscience Pharmingen, USA) and the supplier's protocol. Annexin V-FITC and PI binding were analyzed using a Becton-Dickinson FACScan. Data were collected using logarithmic amplification of both the FL1 (FITC) and FL2 (PI) channels. Quadrant analysis of coordinate dot plots was performed with CellQuest software.
Induction of Apoptosis: Annexin V-FITC (FL1-H) and PI (FL2-H) staining (detected by flow cytometry) was used to distinguish viable (PI-/FITC−), early apoptotic (PI-/FITC+), late apoptotic (PI+/FITC+) and necrotic (PI+/FITC−) cells. […] JDF04R, Iressa and MTZ however, induced only barely detectable levels of apoptosis (<10%). The results are indicative that the combined EGFR TK inhibitory and DNA damaging properties of JDF12 can induce more cell apoptosis than observed with a single-function drug (e.g. Iressa and MTZ) alone (FIG. 7a-c).

[6] = system: DU145; assay: Growth inhibition assay (SRB), DU145; conditions: Homo sapiens, DU-145, 144 h, read-out: IC50 (x ± SD)
Method: (§1) Cell Culture: The human prostate cancer cell line DU145 was obtained from the American Type Culture Collection (Manassas, Va.)). The androgen-sensitive prostate cancer cell lines LNCaP-FGC, LNCaP-EGFR and LNCaP-erbB2 (stably transfected with EGFR erbB2 gene respectively) were generous gifts from Dr. Moulay Aloui-Jamali (Jewish General Hospital, Montreal, Quebec, Canada). […] The cultures were maintained in logarithmic growth by harvesting with a trypsin-EDTA solution containing 0.5 mg/mL trypsin and 0.2 mg/mL EDTA and replating before confluence. In all assays, the cells were plated over a period of time ranging from 24-48 h prior to drug administration.

[7] = system: DU145, LNCaP, LNCaPEGFR, and LNCaPerb2 cell lines; assay: Growth inhibition assay (SRB), comparisons over all four cell lines; type: cell-based
Text: Each point represents the average of at least two independent experiments run in triplicate.

[8] = system: LNCaP-ErbB2; assay: Growth inhibition assay (SRB), LNCaP-ErbB2; conditions: 144 h, read-out: IC50 (x ± SD)
Method: as §1

[9] = system: LNCaP-EGFR; assay: Growth inhibition assay (SRB), LNCaP-EGFR; conditions: 144 h, read-out: IC50 (x ± SD)
Method: as §1

[10] = system: LNCaP-WT; assay: Growth inhibition assay (SRB), LNCaP-WT; conditions: 144 h, read-out: IC50 (x ± SD)
Method: as §1

[11] = system: DU145 cells; assay: Alkaline comet assay for quantization of DNA damage; type: cell-based, human
Method: Alkaline Comet Assay for Quantization of DNA Damage: A modified alkaline comet assay technique was used for quantization of DNA damage induced in DU145 cells. The cells were exposed to a dose range of the drugs (JDF12, JDF04R, or MTZ) over a period of 2 h and harvested with trypsin-EDTA. The cells were subsequently collected by centrifugation and resuspended in PBS. The resulting cell suspensions were diluted to 3×10^5 cell/mL and mixed with agarose (0.75%) in PBS at 37° C. in a 1:9 dilution. The gels were cast on Gelband strips (Mandel Scientific, Guelph, Ontario, Canada) using gel casting chambers and then immediately placed into a lysis buffer (2.5 M NaCl, 0.1 M tetrasodium EDTA, 10 mM Trisbase, 1% (v/v) N-lauryl sarcosine, 10% (v/v) DMSO, and 1% (v/v) Triton X-100). After being kept overnight at 4° C., the gels were gently rinsed with distilled water and immersed in a second lysis buffer (2.5 M NaCl, 0.1 M tetrasodium EDTA, 10 mM Tris base) containing 1 mg/mL proteinase K for 60 min at 37° C. The cells were subsequently rinsed with distilled water, incubated in alkaline electrophoresis buffer for 30 min at 37° C. and electrophoresed at 400 mA for 20 min. The gels were then rinsed with distilled water and placed into 1 M ammonium acetate for 30 min. The gels were subsequently soaked in 100% ethanol for 2 h, dried overnight and stained with SYBR Gold (1:10000 dilution of stock supplied by Molecular Probes, Eugene, Oreg.) for 20 min. Comets were visualized at 330× magnification and DNA damage was assessed using the tail moment parameter (i.e. the distance between the barycenter of the head and the tail of the comet multiplied by the percentage DNA in the tail region). A minimum of 50 cell comets were analyzed for each sample, using Comet Assay χ v4.2 image analysis software, and the values presented as average tail moments for the entire cell population.
The reactive nature of the latter species makes its detection very difficult. However, the induction of DNA damage (i.e. DNA alkylation) represents evidence of its formation and fleeting presence.

[12] = listed as Mitozolomide, 100 mg/kg

T2 sequence (P00533 25-1210): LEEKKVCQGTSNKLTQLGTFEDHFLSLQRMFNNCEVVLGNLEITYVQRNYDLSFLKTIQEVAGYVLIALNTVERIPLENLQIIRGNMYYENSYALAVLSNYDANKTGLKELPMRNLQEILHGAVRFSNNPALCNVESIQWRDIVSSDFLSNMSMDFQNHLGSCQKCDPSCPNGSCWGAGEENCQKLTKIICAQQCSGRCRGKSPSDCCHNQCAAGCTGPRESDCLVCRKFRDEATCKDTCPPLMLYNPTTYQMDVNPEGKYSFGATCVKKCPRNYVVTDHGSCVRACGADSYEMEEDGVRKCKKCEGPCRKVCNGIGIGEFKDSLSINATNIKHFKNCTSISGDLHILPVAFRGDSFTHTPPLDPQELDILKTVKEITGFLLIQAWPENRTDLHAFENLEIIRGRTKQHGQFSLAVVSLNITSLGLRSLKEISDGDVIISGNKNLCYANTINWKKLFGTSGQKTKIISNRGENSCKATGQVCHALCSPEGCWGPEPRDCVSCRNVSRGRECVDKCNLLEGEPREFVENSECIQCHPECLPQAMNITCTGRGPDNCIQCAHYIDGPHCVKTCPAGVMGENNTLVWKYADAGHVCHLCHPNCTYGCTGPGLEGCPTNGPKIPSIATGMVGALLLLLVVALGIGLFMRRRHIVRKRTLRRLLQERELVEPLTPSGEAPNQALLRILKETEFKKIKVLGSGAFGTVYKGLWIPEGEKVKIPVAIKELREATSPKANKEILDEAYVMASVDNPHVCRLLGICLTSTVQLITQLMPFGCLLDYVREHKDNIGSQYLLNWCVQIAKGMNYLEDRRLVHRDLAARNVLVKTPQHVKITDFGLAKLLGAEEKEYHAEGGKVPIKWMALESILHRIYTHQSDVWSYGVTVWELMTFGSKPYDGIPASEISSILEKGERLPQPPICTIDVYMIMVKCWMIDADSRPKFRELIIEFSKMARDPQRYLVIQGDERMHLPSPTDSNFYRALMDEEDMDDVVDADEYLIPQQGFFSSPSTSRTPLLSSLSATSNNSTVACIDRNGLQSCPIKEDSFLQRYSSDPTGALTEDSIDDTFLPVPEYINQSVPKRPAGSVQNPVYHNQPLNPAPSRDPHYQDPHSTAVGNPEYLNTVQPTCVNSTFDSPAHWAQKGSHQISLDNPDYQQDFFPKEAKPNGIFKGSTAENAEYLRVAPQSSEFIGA
T1 sequence (P00533 25-1210): as above

Row | Compound | Vital Sign, Day 1 [1] | Vital Sign, Day 3 [1] | Vital Sign, Day 6 [1] | Vital Sign, Day 8 [1] | Vital Sign, Day 10 [1] | Vital Sign, Day 16 [1] | toxicity at 100 mg/kg ([1]; CD-1 mice, 100 mg/kg) | IC50 ([3]; ELISA) [nM] | IC50 [6] [µM] | IC50 [8] [µM] | IC50 [9] [µM] | IC50 [10] [µM] | DNA damage (tail moment) ([11]; DU145 cells, 2 h exposure) | other results
1 | COc1cc2ncnc(Nc3ccc(F)c(Cl)c3)c2cc1OCCCN1CCOCC1 [Iressa] | Normal | Normal | Normal | Normal | Normal | Normal | no signs of toxicity |  |  |  |  |  |  | antitumor activity [2]: did not show significant antitumor activity
2 | O=C(Nc1ccc2ncnc(Nc3cccc(Cl)c3)c2c1)c1ncn2c(=O)n(CCCl)nnc12 [JDF12] | Normal | Normal | Normal | Normal | Normal | Normal | no signs of toxicity; also recorded: minor toxicity | 620 | 11.3 ± 0.22 | 13.3 ± 2.02 | 12 ± 0.57 | 13.2 ± 3.88 | dose-dependent DNA damage | IC50 ([4]; DU145 cells, EGF stimulated, 2 h drug exposure): 12 µM; potency less than that of JDF04R (fold) ([4]; DU145 whole cell assay): approximately 2 fold; late apoptosis [5]: significant increase in late apoptosis; MTD at 14 days ([1]; male, CD-1, mouse, in vivo, mice, weight loss over a 14-day period, two animals per group, read-out: maximum tolerated dose): 100 mg/kg; increased anti-proliferation potency compared to Iressa (fold) ([7]; four cell lines): 2-3 fold; increased anti-proliferation potency compared to MTZ (fold) ([7]; four cell lines): 10-16 fold; more potent than equimolar combination of MTZ with Iressa or JDF04R (fold) ([7]; four cell lines): 1.7 fold; more potent than the equieffective 2-drug combination (fold) ([7]; identical conditions): more than 1.3 fold; weight loss during the efficacy study ([2]; CD-1 mice, 100 mg/kg, FIG. 8c): No weight loss; antitumor activity ([2]; 100 mg/kg): significant antitumor activity; also recorded: superior to that of an equidose of Iressa; DNA damage, fold less than MTZ ([11]; DU145 cells, 2 h exposure): 2 fold
3 | NC(=O)c1ncn2c(=O)n(CCCl)nnc12 [MTZ, 8-carbamoyl-3-(2-chloroethyl)imidazo[5,1-d]-1,2,3,5-tetrazin-4(3H)-one] | Normal | Normal |  |  |  |  | toxic at this dose |  | 179 ± 21.1 | 142 ± 8.93 | 176 ± 6.51 | 150 ± 7.92 |  | EGFR TK-inhibitory activity ([3]; ELISA, FIG. 1): negligible; Vital Sign, Day 6 [1, 12]: Weight loss > 20% (1 mouse); also recorded: Death (1 mouse); also recorded: (BCS = 2); Vital Sign, Day 8 [1, 12]: (BCS = 2); also recorded: Weight loss > 20% (1 mouse); Vital Sign, Day 10 [1, 12]: (BCS = 2); also recorded: Weight loss > 20% (1 mouse); Vital Sign, Day 16 [1, 12]: (BCS = 2); also recorded: All Mice Thin; also recorded: Death (3 mice); overall body condition score (BCS) ([1]; CD-1 mice, 100 mg/kg, 6-10 days after initiating treatment): 2; level of DNA damage, fold higher than JDF12 [11]: approximately 2 fold
4 | Nc1[nH]cnc1C(=O)Nc1ccc2ncnc(Nc3cccc(Cl)c3)c2c1 [JDF04R] |  |  |  |  |  |  |  | 230 | 151 ± 17 | 111 ± 18.1 | 119 ± 4.1 | 178 ± 13.3 | did not demonstrate any DNA damaging activity | more potent EGFR TK inhibitor than JDF12 (fold) ([3]; JDF04R vs JDF12, ELISA IC50): 2.7 fold; inhibition of EGFR TK ([4]; DU145 cells, at concentrations as low as 6 μM): ~100%
